# Assay results: patent publication US8673912B2, “Crystalline Forms on N-[3-fluoro-4-({6-(methyloxy)-7-[(3-morpholin-4-ylpropyl)oxy]-quinolin-4-yl}oxy)phenyl]-N′-(4-fluorophenyl)cyclopropane-1,1-dicarboxamide” (Exelixis, Inc., priority 2009, dated 2014)
# Assays:
# Assay type in all cases: physicochemical
# [1] = Karl Fisher water content determination; conditions: crystalline Form A prepared in Example 1.1.2; measured in duplicate
# Experimental: The study was done using a standard procedure. Water contents were measured on a Mettler Toledo DL39 Coulometer using Hydranal AG Oven reagent and an argon purge. Samples were introduced into the vessel as solids weighed out onto a platinum TGA pan which was connected to a subaseal via tweezers to avoid water ingress. Approximately 10 mg of sample was used per titration and each analysis was performed in duplicate. The water content of crystalline Compound (I) prepared in Example 1.1.2 was measured in duplicate and gave an average value of 0.1%.
# [2] = Gravimetric Vapor Sorption Study (GVS); conditions: crystalline Form A prepared in Example 1.1.2
# Experimental: The GVS study was run using a standard procedure. Samples were run on a Hiden IGASorp moisture sorption analyzer running CFRSorp software. Sample sizes were typically 10 mg. A moisture adsorption desorption isotherm was performed as outlined below. All samples were loaded/unloaded at typical room humidity and temperature (40% RH, 25° C.) and analyzed afterwards by XRPD. The standard isotherm run is a cycle starting at 40% RH→90%→Dry finishing at 35% RH at 25° C. and 10% RH intervals.
# [3] = Relative thermodynamic stability of crystalline forms; conditions: forms A and B are enantiotropically related
# [4] = Retention of crystalline form in final tablet (XRPD); conditions: micronized, high shear wet granulation, compression, optional aqueous film coat
# Experimental: The tablets in this example were prepared with an optional aqueous film coat. Preparation of the intra-granular component involved a high shear wet granulation to make granules to be used for further processing. All components used are conventional for the wet granulation process except for the sodium lauryl sulfate which was added as a bioenhancement agent to enhance the bioavailability of the drug substance. The crystalline Compound (I), form B, was used in a micronized form for bioenhancement, which means that the density of the drug substance is low making it difficult to handle and process. High shear wet granulation is used to produce dense material that is easier to process and make into tablets. The preparation of the extra-granular component was a compression step to make the tablets out of the granules and the added excipients. The excipients used are conventional to allow for the formation of the tablet. The crystalline form of Compound 1, Form B, was retained in the final tablet as confirmed by XRPD.
"water content (Karl Fisher), average value [1] [%]",weight gain (GVS) ([2]; 25° C. and 90% humidity) [%],reanalysis of the sample by XRPD after GVS ([2]; after isotherm cycle 40% RH to 90% to dry to 35% RH at 25° C.),temperatures at which the form is believed to be the most thermodynamically stable form [3],crystalline form in the final tablet as confirmed by XRPD [4],SMILES
0.1,0.5,no change in form,,,"COc1cc2c(Oc3ccc(NC(=O)C4(C(=O)Nc5ccc(F)cc5)CC4)cc3F)ccnc2cc1OCCCN1CCOCC1 [Compound (I), N-[3-fluoro-4-({6-(methyloxy)-7-[(3-morpholin-4-ylpropyl)oxy]quinolin-4-yl}oxy)phenyl]-N′-(4-fluorophenyl)cyclopropane-1,1-dicarboxamide]"
,,,greater than 75 °C,retained,"COc1cc2c(Oc3ccc(NC(=O)C4(C(=O)Nc5ccc(F)cc5)CC4)cc3F)ccnc2cc1OCCCN1CCOCC1 [Form B, N-[3-fluoro-4-({6-(methyloxy)-7-[(3-morpholin-4-ylpropyl)oxy]quinolin-4-yl}oxy)phenyl]-N′-(4-fluorophenyl)cyclopropane-1,1-dicarboxamide]"
,,,less than 75 °C,,"COc1cc2c(Oc3ccc(NC(=O)C4(C(=O)Nc5ccc(F)cc5)CC4)cc3F)ccnc2cc1OCCCN1CCOCC1 [Form A, N-[3-fluoro-4-({6-(methyloxy)-7-[(3-morpholin-4-ylpropyl)oxy]quinolin-4-yl}oxy)phenyl]-N′-(4-fluorophenyl)cyclopropane-1,1-dicarboxamide]"
